Source: patent publication US11124479B2, “Oligopyrroles as antagonists of islet amyloid polypeptide oligomerization” (New York University, priority 2017, dated 2021)

Key:
[1] = biological target: T1, islet amyloid polypeptide (IAPP) (Homo sapiens, UniProt P10997); assay: ThT-based kinetic assay of IAPP fibrillation; type: biochemical; settings: for inhibition capacity towards IAPP fibrillation (in words): ThT assays under our conditions; for relative t50 of IAPP fibrillation versus control reaction / inhibition of IAPP fibrillation (in words): 15 μM IAPP, equimolar ratio; for inhibition of IAPP fibrillation (in words): FIG. 2C
T1 construct: IAPP is a 37 residue neuropancreatic hormone peptide; purchased Anaspec (Fremont, Calif.)
T1 sequence (P10997 34-70 limits assumed): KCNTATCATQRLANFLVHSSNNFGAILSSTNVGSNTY
Text: The aggregation kinetics of IAPP was probed using an exogenous reporter, Thioflavin T (ThT), which quantifies the amount of fibers in solution without perturbing the aggregation kinetics of IAPP (see Wolfe, L. S.; Calabrese, M. F.; Nath, A.; Blaho, D. V.; Miranker, A. D.; Xiong, Y. Proc. Natl. Acad. Sci. U.S.A. 2010, 107, 16863-16868; Levine, H. Protein Sci. 1993, 2, 404-410). […] The kinetics of IAPP fibrillation was quantified using the reaction midpoint, t50, which is the time required to reach 50% fluorescence in the fibrillation reaction (FIG. 8).
Kinetic assays were conducted on a FlexStation 3 Multi-Mode Microplate reader from Molecular Devices (Sunnyvale, Calif.). Experiments were conducted in triplicate in a 96-well plate with a final volume of 200 μL per well. Every measurement was an average of 50 readings. The aggregation of IAPP was initiated by its addition from a stock solution (1 mM in DMSO) to phosphate buffer. The stoichiometry ratio for ThT to IAPP was 0.5:1. Peptide aggregation was monitored by ThT fluorescence (λex=445 nm and λem=485 nm). The blank sample contained all the components of the peptide samples except peptide. The sample data were processed by subtracting the blank and renormalizing the fluorescence intensity by setting the maximum value to 1.
Kinetic assays in the presence of the compounds of the invention were conducted under the same conditions. Small molecules were added from a stock solution (1 mM or 10 mM in DMSO) to keep the final concentration of DMSO less than 1.0% (v/v). Small molecules were added to the wells with ThT and buffer and mixed gently with a pipette before adding IAPP. To keep the conditions identical, an equal amount of DMSO was added to the wells with IAPP only reactions. For the aggregation kinetics of Aβ42, the peptide was dissolved in 1N NaOH (0.5-1 mM) and vortexed for 2 min. to ensure the complete solubility. The aggregation of 3 μM Aβ42 was initiated by addition of peptide from a stock solution (in 1 N NaOH, 0.5-1 mM) to phosphate buffer.
Kinetic profiles were processed using Origin (version 9.1). Kinetic curves were fit using the built-in sigmoidal fit. Each run was fit independently to extract the t50 (time required to reach 50% of the maximum fluorescence intensity). Error bars represent standard deviations from the mean of at least three independent experiments.
The membrane model system selected for the amyloid assays is a mixture of DOPG (dioleoylphosphatidylglycerol) and DOPC (dioleoylphosphatidylcholine) at 3:7 molar ratio, which mimics physiological conditions (Ono, K.; Condron, M. M.; Teplow, D. B. Proc. Natl. Acad. Sci. U.S.A. 2009, 106, 14745-14750). The lipid catalyzed aggregation of IAPP was initiated by adding freshly prepared 15 μM IAPP (1 mM stock solution in DMSO) to the phosphate buffer (50 mM NaPi, 150 mM KCl, pH 7.4) containing 15 μM ThT and 750 μM of unilamellar liposomes (LUVs, DOPG:DOPC, 3:7, d=100 nm).

[2] = biological target: T2, IAPP-induced lipid membrane leakage (Homo sapiens, UniProt P10997); assay: Fluorescein-based liposome leakage assay; type: biochemical; settings: 4 μM IAPP, equimolar ratio
T2 construct: IAPP is a 37 residue neuropancreatic hormone peptide; purchased Anaspec (Fremont, Calif.)
T2 sequence (P10997 34-70 limits assumed): T1 sequence (P10997 34-70 limits assumed)
Text: Colocalization of IAPP at the mitochondrial membrane and the subsequent membrane poration is considered to be one of the potential contributors to β-cell toxicity. Therefore, a liposome leakage assay could serve as a surrogate marker for IAPP induced cytotoxicity (see Last, N. B.; Miranker, A. D. Proc. Natl. Acad. Sci. U.S.A. 2013, 110, 6382-6387; and Last, N. B.; Rhoades, E.; Miranker, A. D. Proc. Natl. Acad. Sci. U.S.A. 2011, 108, 9460-9465). A previously reported fluorescein-based liposome leakage assay was employed to test the effect of ADH-101 on membrane associated α-helical intermediates of IAPP. Briefly, fluorescein-dextran conjugate (MW=70 kDa) was encapsulated in unilamaller extruded lipid vesicles (DOPG:DOPC, 3:7, d=100 nm). The size of fluorescein-dextran conjugate allows it to stay inside the lipid vesicles during IAPP mediated membrane poration. The leakage kinetics was probed by the quenching of fluorescence using a fluorescent quencher, DPX (p-xylene-bis-pyridinium […]). The kinetic profiles of leakage are single exponential with a decrease in fluorescence as a function of time. The leakage reaction was initiated by introducing 200 μM liposome into a solution of 4 μM IAPP and 6 mM of DPX. The introduction of the excess ionic concentration by DPX was counterbalanced by adjusting the buffer concentration. The kinetics of the leakage mediated by IAPP yielded a single exponential profile with a leakage rate of 7.3±1.1×10^−3 s^−1 (FIG. 5A).
The kinetics of liposome leakage induced by IAPP was monitored on QuantaMaster C-61 fluorescence spectrometer (Photon Technology International, Edison, N.J.) at 25° C. […] The stock solution of IAPP used in the measurements was kept in water at a concentration of 1 mM. The stock solution of water soluble quencher, DPX (p-xylene-bis-pyridinium bromide) was prepared in buffer (100 mM KCl, 50 mM NaPi, pH 7.4) at a concentration of 100 mM. The small molecules used in the leakage assay were dissolved in DMSO with a concentration range of 10-20 mM. The final concentration of dye encapsulating liposome, DPX, human IAPP, and small molecules were 200, 6000, 4, and 4 μM respectively. The final buffer concentration was corrected using higher concentration of buffer to keep the osmolality balanced. […] To determine the leakage rate constant, first the fluorescence was normalized and corrected by subtracting it from normalized fluorescence of control reaction. The corrected fluorescence was fit using equation given below (using Origin 9.1). All the experiments were performed in triplicate and the error values presented are standard deviations. a*exp(−b*x)+c (2) a=amplitude from 100% unleaked to 0% leaked c=final fraction of unleaked liposome y=change in fluorescence b=leakage rate constant

Partition coefficient = type: physicochemical
[3] = lipid catalyzed (750 μM LUVs, DOPG:DOPC 3:7)

## CC1=C/C(=C(\c2ccc(N)c(S(=O)(=O)[O-])c2)c2ccc(N)c(S(=O)(=O)O)c2)C=C(S(=O)(=O)[O-])C1=N.[Na+].[Na+] [AF, Acid fuchsin, reference compound]
[1]
  inhibition capacity towards IAPP fibrillation (in words): moderate inhibition capacity
[2]
  effect on IAPP induced liposome leakage (in words): unable to effect

## O=C(O[C@@H]1Cc2c(O)cc(O)cc2O[C@@H]1c1cc(O)c(O)c(O)c1)c1cc(O)c(O)c(O)c1 [EGCG, reference compound]
[1]
  inhibition capacity towards IAPP fibrillation (in words): moderate inhibition capacity
[2]
  effect on IAPP induced liposome leakage (in words): unable to effect

## COC(=O)c1ccc(NC(=O)c2ccc(NC(=O)c3ccc([N+](=O)[O-])c(OCC(=O)O)n3)c(OCC(C)C)n2)c(OCC(C)C)n1 [ADH-201, reference compound]
[1]; [3]
  relative t50 of IAPP fibrillation versus control reaction: 1.4 fold

## COc1cc(/C=C/C(=O)CC(=O)/C=C/c2ccc(O)c(OC)c2)ccc1O [Curcumin]
[1]
  inhibition capacity towards IAPP fibrillation (in words): moderate inhibition capacity

## COC(=O)c1ccc(NC(=O)c2ccc(NC(=O)c3ccc([N+](=O)[O-])c(OCC(=O)O)n3)c(OCC(C)C)n2)c(OCC(=O)O)n1 [ADM-11, reference compound]
[1]; [3]
  relative t50 of IAPP fibrillation versus control reaction: 1.9 fold
Partition coefficient
  logP: -0.8

## CCOC(=O)c1cc(NC(=O)c2cc(NC(=O)c3cc([N+](=O)[O-])cn3CC(C)C)cn2CC(C)C)cn1CC(C)C [ADH-105]
[1]; de novo / lipid free
  relative t50 of IAPP fibrillation versus control reaction: 2.6 fold
[1]; [3]
  relative t50 of IAPP fibrillation versus control reaction: 1.5 fold

## CCOC(=O)c1cc([N+](=O)[O-])cn1CCC(=O)O [ADH-117]
[1]
  inhibition of IAPP fibrillation (in words): ineffective

## CCOC(=O)c1cc([N+](=O)[O-])cn1CC(C)C [ADH-113]
[1]
  inhibition of IAPP fibrillation (in words): ineffective

## CCOC(=O)c1cc(NC(=O)c2cc(NC(=O)c3cc([N+](=O)[O-])cn3CCCc3ccccc3)cn2CC(C)C)cn1CCC(=O)O [ADH-120]
[1]
  antagonist of oligomerization, fibrillation, and/or aggregation of IAPP (in words): effective antagonist
